Read-outs that look alike come from different tables or passages of the source.
Molecular target: T1, Human M4 (Homo sapiens, UniProt P08173)
T1 construct: expressed in transfected cells; host or cells: CHO-K1 (ATCC), co-transfected with chimeric G protein Gqi5
T1 sequence (P08173 1-479): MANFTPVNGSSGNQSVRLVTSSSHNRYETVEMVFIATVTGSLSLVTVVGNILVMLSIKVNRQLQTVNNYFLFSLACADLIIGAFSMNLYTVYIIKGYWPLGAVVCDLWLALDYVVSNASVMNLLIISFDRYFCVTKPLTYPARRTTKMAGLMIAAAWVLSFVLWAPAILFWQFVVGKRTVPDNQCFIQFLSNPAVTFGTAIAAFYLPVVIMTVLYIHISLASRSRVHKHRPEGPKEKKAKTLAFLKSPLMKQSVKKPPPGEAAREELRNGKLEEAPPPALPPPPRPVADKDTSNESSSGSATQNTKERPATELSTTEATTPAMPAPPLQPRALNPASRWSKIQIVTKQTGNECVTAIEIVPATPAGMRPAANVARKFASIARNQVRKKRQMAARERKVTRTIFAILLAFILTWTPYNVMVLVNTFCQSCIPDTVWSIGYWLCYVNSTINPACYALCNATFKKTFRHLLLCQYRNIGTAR
Test: mAChR M4 cell-based functional assay (calcium flux, antagonism of EC80 acetylcholine response)
Conditions: for IC50: concentration-dependent decrease of the response elicited by an EC80 concentration of acetylcholine
Method: Human or rat M4 cDNA, along with the chimeric G protein Gqi5, were transfected into Chinese hamster ovary (CHO-K1) cells purchased from the American Type Culture Collection using Lipofectamine2000. M4/Gqi5/CHO cells were grown in Ham's F-12 medium containing 10% heat-inactivated fetal bovine serum (FBS), 20 mM HEPES, 500 μg/mL G418 sulfate, and 200 μg/mL Hygromycin B.
For high throughput measurement of agonist-evoked increases in intracellular calcium, CHO-K1 cells stably expressing muscarinic receptors were plated in growth medium lacking G418 and hygromycin at 15,000 cells/20 μL/well in Greiner 384-well black-walled, tissue culture (TC)-treated, clear-bottom plates (VWR). Cells were incubated overnight at 37° C. and 5% CO2. The next day, cells were washed using an ELX 405 (BioTek) with assay buffer; the final volume was then aspirated to 20 μL. Next, 20 μL of a 2.3 μM stock of Fluo-4/acetoxymethyl ester (Invitrogen, Carlsbad, CA), prepared as a 2.3 mM stock in DMSO and mixed in a 1:1 ratio with 10% (w/v) Pluronic F-127 and diluted in assay buffer, was added to the wells and the cell plates were incubated for 50 min at 37° C. and 5% CO2. Dye was removed by washing with the ELX 405 and the final volume was aspirated to 20 μL. Compound master plates were formatted in a 10 point concentration-response curve (CRC) format (1:3 dilutions) in 100% DMSO with a starting concentration of 10 or 1 mM using a BRAVO liquid handler (Agilent). Test compound CRCs were then transferred to daughter plates (240 nL) using the Echo acoustic plate reformatter (Labcyte, Sunnyvale, CA) and then diluted into assay buffer (40 μL) to a 2× stock using a Thermo Fisher Combi (Thermo Fisher Scientific, Waltham, MA).
Calcium flux was measured using the Functional Drug Screening System (FDSS) 6000 or 7000 (Hamamatsu Corporation, Tokyo, Japan) as an increase in the fluorescent static ratio. Compounds were applied to cells (20 μL, 2×) using the automated system of the FDSS at 2 seconds into the protocol and the data were collected at 1 Hz. At 143 s, 10 μL of an EC20 concentration of the muscarinic receptor agonist acetylcholine was added (5×), followed by the addition of 12 μL of an EC80 concentration of acetylcholine at the 268 s time point (5×). Agonist activity was analyzed as a concentration-dependent increase in calcium mobilization upon compound addition. Positive allosteric modulator activity was analyzed as a concentration-dependent increase in the EC20 acetylcholine response. Antagonist activity was analyzed as a concentration-dependent decrease in the EC80 acetylcholine response; for the purposes of the tables herein, an IC50 (inhibitory concentration 50) was calculated as a concentration-dependent decrease of the response elicited by an EC80 concentration of acetylcholine. Concentration-response curves were generated using a four-parameter logistical equation in XLFit curve fitting software (IDBS, Bridgewater, NJ) for Excel (Microsoft, Redmond, WA) or Prism (GraphPad Software, Inc., San Diego, CA) or the Dotmatics software platform (Dotmatics, Bishop's Stortford, UK).
Compounds were synthesized as described above. Activity (IC50 and Emin) was determined in the mAChR M4 cell-based functional assay as described above and the data are shown in Table 2.

[1] = M4/Gqi5/CHO-K1 cells, % ACh maximum at 30 μM, read-out: Human M4 Emin (% ACh maximum at 30 μM)
[2] = CHO-K1, read-out: Human M4 Emin (% ACh maximum at 30 μM)

Compound | remaining activity at 30 µM [1] | IC50 (M4/Gqi5/CHO-K1 cells) | remaining activity at 30 µM [2]
O=C(Nc1cc(F)c(F)c(-c2ccc(N[C@H]3C[C@@H]4CN(CC5CCOCC5)C[C@@H]4C3)nn2)c1)C(F)F [Compound A15, N-(3,4-Difluoro-5-(6-(((3aR,5s,6aS)-2-((tetrahydro-2H-pyran-4-yl)methyl)octahydrocyclopenta[c]pyrrol-5-yl)amino)pyridazin-3-yl)phenyl)-2,2-difluoroacetamide] | – | 15 nM | 4%
N#CCC(=O)Nc1cc(F)c(F)c(-c2ccc(N[C@H]3C[C@@H]4CN(CC5CCOCC5)C[C@@H]4C3)nn2)c1 [Compound A16, 2-cyano-N-(3,4-difluoro-5-(6-(((3aR,5s,6aS)-2-((tetrahydro-2H-pyran-4-yl)methyl)octahydrocyclopenta[c]pyrrol-5-yl)amino)pyridazin-3-yl)phenyl)acetamide] | 4% | 47 nM | –
CS(=O)(=O)CC(=O)Nc1cccc(-c2ccc(N[C@H]3C[C@@H]4CN(CC5CCOCC5)C[C@@H]4C3)nn2)c1 [Compound A17, 2-(Methylsulfonyl)-N-(3-(6-(((3aR,5s,6aS)-2-((tetrahydro-2H-pyran-4-yl)methyl)octahydrocyclopenta[c]pyrrol-5-yl)amino)pyridazin-3-yl)phenyl)acetamide] | – | 2.8 nM | 3%
O=C(NC12CC(C1)C2)c1cc(F)c(F)c(-c2ccc(N[C@H]3C[C@@H]4CN(CC5CCOCC5)C[C@@H]4C3)nn2)c1 [Compound A18, N-(Bicyclo[1.1.1]pentan-1-yl)-3,4-difluoro-5-(6-(((3aR,5s,6aS)-2-((tetrahydro-2H-pyran-4-yl)methyl)octahydrocyclopenta[c]pyrrol-5-yl)amino)pyridazin-3-yl)benzamide] | – | 27 nM | 3%
O=C(NC1CC(F)(F)C1)c1cc(F)c(F)c(-c2ccc(N[C@H]3C[C@@H]4CN(CC5CCOCC5)C[C@@H]4C3)nn2)c1 [Compound A19, N-(3,3-difluorocyclobutyl)-3,4-difluoro-5-(6-(((3aR,5s,6aS)-2-((tetrahydro-2H-pyran-4-yl)methyl)octahydrocyclopenta[c]pyrrol-5-yl)amino)pyridazin-3-yl)benzamide] | 4% | 82 nM | –
O=C(c1cc(F)c(F)c(-c2ccc(N[C@H]3C[C@@H]4CN(CC5CCOCC5)C[C@@H]4C3)nn2)c1)N1CC(F)(F)C1 [Compound A20, (3,4-difluoro-5-(6-(((3aR,5s,6aS)-2-((tetrahydro-2H-pyran-4-yl)methyl)octahydrocyclopenta[c]pyrrol-5-yl)amino)pyridazin-3-yl)phenyl)(3,3-difluoroazetidin-1-yl)methanone] | 4% | 100 nM | –
O=C(c1ccc(-c2ccc(N[C@H]3C[C@@H]4CN(CC5CCOCC5)C[C@@H]4C3)nn2)cc1)N1CCCC1 [Compound A21, Pyrrolidin-1-yl(4-(6-(((3aR,5s,6aS)-2-((tetrahydro-2H-pyran-4-yl)methyl)octahydrocyclopenta[c]pyrrol-5-yl)amino)pyridazin-3-yl)phenyl)methanone] | – | 3.9 nM | 4%
O=C(c1ccc(-c2ccc(N[C@H]3C[C@@H]4CN(CC5CCOCC5)C[C@@H]4C3)nn2)cc1)N1CCCCC1 [Compound A22, piperidin-1-yl(4-(6-(((3aR,5s,6aS)-2-((tetrahydro-2H-pyran-4-yl)methyl)octahydrocyclopenta[c]pyrrol-5-yl)amino)pyridazin-3-yl)phenyl)methanone] | 4% | 21 nM | –
O=C(c1ccc(-c2ccc(N[C@H]3C[C@@H]4CN(CC5CCOCC5)C[C@@H]4C3)nn2)cc1)N1CCC(O)C1 (stereo partly drawn) [Compound A25, (3-hydroxypyrrolidin-1-yl)(4-(6-(((3aR,5s,6aS)-2-((tetrahydro-2H-pyran-4-yl)methyl)octahydrocyclopenta[c]pyrrol-5-yl)amino)pyridazin-3-yl)phenyl)methanone] | 4% | 25 nM | –

Now from value to compound, other results behind:

remaining activity at 30 µM [1] | IC50 (M4/Gqi5/CHO-K1 cells) | Compound | remaining activity at 30 µM [2]
3% | 66 nM | O=C(Nc1cc(F)c(F)c(-c2ccc(N[C@H]3C[C@@H]4CN(CC5CCOCC5)C[C@@H]4C3)nn2)c1)C1(C(F)(F)F)CC1 [Compound A11, N-(3,4-difluoro-5-(6-(((3aR,5s,6aS)-2-((tetrahydro-2H-pyran-4-yl)methyl)octahydrocyclopenta[c]pyrrol-5-yl)amino)pyridazin-3-yl)phenyl)-1-(trifluoromethyl)cyclopropane-1-carboxamide] | –
4% | 85 nM | O=C(Nc1cc(F)c(F)c(-c2ccc(N[C@H]3C[C@@H]4CN(CC5CCOCC5)C[C@@H]4C3)nn2)c1)C1(F)CC1 [Compound A12, N-(3,4-difluoro-5-(6-(((3aR,5s,6aS)-2-((tetrahydro-2H-pyran-4-yl)methyl)octahydrocyclopenta[c]pyrrol-5-yl)amino)pyridazin-3-yl)phenyl)-1-fluorocyclopropane-1-carboxamide] | –
4% | 64 nM | O=C(Nc1cc(F)c(F)c(-c2ccc(N[C@H]3C[C@@H]4CN(CC5CCOCC5)C[C@@H]4C3)nn2)c1)C1(O)CCC1 [Compound A13, N-(3,4-difluoro-5-(6-(((3aR,5s,6aS)-2-((tetrahydro-2H-pyran-4-yl)methyl)octahydrocyclopenta[c]pyrrol-5-yl)amino)pyridazin-3-yl)phenyl)-1-hydroxycyclobutane-1-carboxamide] | –
4% | 160 nM | O=C(Nc1cc(F)c(F)c(-c2ccc(N[C@H]3C[C@@H]4CN(CC5CCOCC5)C[C@@H]4C3)nn2)c1)C1CC(F)(F)C1 [Compound A14, N-(3,4-difluoro-5-(6-(((3aR,5s,6aS)-2-((tetrahydro-2H-pyran-4-yl)methyl)octahydrocyclopenta[c]pyrrol-5-yl)amino)pyridazin-3-yl)phenyl)-3,3-difluorocyclobutane-1-carboxamide] | –
3% | 15 nM | CC1(O)CN(C(=O)c2ccc(-c3ccc(N[C@H]4C[C@@H]5CN(CC6CCOCC6)C[C@@H]5C4)nn3)cc2)C1 [Compound A23, (3-hydroxy-3-methylazetidin-1-yl)(4-(6-(((3aR,5s,6aS)-2-((tetrahydro-2H-pyran-4-yl)methyl)octahydrocyclopenta[c]pyrrol-5-yl)amino)pyridazin-3-yl)phenyl)methanone] | –
4% | 37 nM | CCN(CC)C(=O)c1ccc(-c2ccc(N[C@H]3C[C@@H]4CN(CC5CCOCC5)C[C@@H]4C3)nn2)cc1 [Compound A24, N,N-diethyl-4-(6-(((3aR,5s,6aS)-2-((tetrahydro-2H-pyran-4-yl)methyl)octahydrocyclopenta[c]pyrrol-5-yl)amino)pyridazin-3-yl)benzamide] | –
